This is an account of results in publication PMC6863598, “Binding of Monovalent and Bivalent Ligands by Transthyretin Causes Different Short- and Long-Distance Conformational Changes” (Journal of Medicinal Chemistry, 2019).

One test addresses T1, TTR HBP (Homo sapiens, UniProt P02766).
T1 construct: hexahistidine (TEV-cleavable) (cleaved yes); made in house; host or cells: E. coli BL21 Star (DE3), peTM11 plasmid
Description: NMR observation of ligand binding to the recombinant TTR halogen binding pocket. To be noted: DSS added for reference purposes, Figure S4. How it is done: NMR spectra were acquired at 310 K with a Bruker AVANCE 700 and 800 MHz NMR spectrometer on a U-^2H, ^13C, ^15N-labeled recombinant TTR samples at concentrations of 50–90 μM in PBS buffer at pH 7.0 and 7.4 in a mixture H2O/D2O 90/10%.
The addition of 4,4-dimethyl-4-silapentane-1-sulfonic acid (DSS) for reference purposes led to the observation that DSS binds to the TTR HBP (see Figure S4).

The target of test [1] is TTR (human wild type TTR isolated from serum) (Homo sapiens, UniProt P02766). Kind of test: Surface plasmon resonance (Biacore T200) of tafamidis binding to immobilised biotinylated TTR. To be noted: for k2 (off-rate, first binding site) / k4 (off-rate, second binding site): dissociation data fitted to a double exponential. On the procedure: Data were fitted to the model described by Scheme 1. The measured fractional response is then given by {[AB + (2ABB)]/Ai} where Ai is the notional concentration of TTR on the surface. Rate parameters were determined from the global fitting of the association data to the binding equilibria as defined by Scheme 1. […]
Surface Plasm on Resonance. Human wild type TTR isolated from serum (Scipac) was biotinylated according to the method of Alhamadsheh et al . 3 using EZ -link sulfo NHS -LC biotin (Thermoscientific) and immobilised in […]
phosphate buffered saline (PBS), 0.05% Tween20 to achieve 3000-4000 response units of biotinylated TTR bound to the SA-chip surface following the manufacturer’s instructions. To block unoccupied sites, biocytin (50 µM) was flowed across the chip (at a flow rate of 50 µl/min, for 1 min). Finally, the chip was washed with Hepes Buffer Saline, pH 7. 4 (+ 0. 05 % Tween20) running buffer until the SPR signal reached a stable background level.
For all procedures, the running buffer was used at a flow rate of […]. The immobilised TTR surface was […]
30 µl/min) and then running buffer alone to monitor the dissociation phase. Between injections sufficient time

The test system of test [2] is TTR. The note with it: simultaneous occupancy of the two binding sites; cited from earlier work.
The subject of test [3] is TTR. Also noted: method as in PMID 28298647. The note with it: cited from earlier work.
Where [4] appears, read: SPR, ± standard deviation, listed as Tafamidis.

As for `C[Si](C)(C)CCCS(=O)(=O)O` [DSS, 4,4-dimethyl-4-silapentane-1-sulfonic acid], the “binding to the TTR HBP” value at TTR HBP was “binds”.
For `O=C(O)c1ccc2nc(-c3cc(Cl)cc(Cl)c3)oc2c1` [tafamidis], the “k3 (on-rate, second binding site)” value in test [1] (SPR global fit, Scheme 1, ± standard deviation) was “(3.5 ± 1.0) × 10^6 M^–1 s^–1”. The “k1 (on-rate, first binding site)” value in test [1] (SPR global fit, Scheme 1, ± standard deviation, three independent experiments) is on record as “(4.5 ± 2.2) × 10^6 M^–1 s^–1”. The “difference in the observed affinities at the two sites” value in test [1] (SPR, Kd2 vs Kd1) stood at 7 fold. For the same compound, the “k2 (off-rate, first binding site)” value is reported as 0.008 s^–1 in test [1] (SPR, ± standard deviation) and “(0.008 ± 0.001) s^–1” in test [1] (setting [4]). Besides, the “k4 (off-rate, second binding site)” value in test [1] (SPR, ± standard deviation) is recorded as 0.06 s^–1; in test [1] (setting [4]), “(0.060 ± 0.006) s^–1”. The “k2 (off-rate measured by SPR)” value in test [1] (first site, Figure 7 legend) was determined as 0.008 Hz. The “k4 (off-rate measured by SPR)” value in test [1] (second site, Figure 7 legend) was 0.06 Hz.
Turning to `O=C(O)c1ccccc1Nc1cc(Cl)c(OCCCCCCCOc2c(Cl)cc(Nc3ccccc3C(=O)O)cc2Cl)c(Cl)c1` [mds84], the “nature of binding by TTR” value with TTR [2] is reported as “pseudo-irreversible”. In the test on TTR [3], the “protection against the proteolytic cleavage of the peptide bond 48–49” value is on record as “highest protection”.
